Assays:
leukotriene biosynthesis = assay: Ionophore A23187-Induced Rat Pleural Inflammation Model (leukotriene biosynthesis inhibition in vivo); conditions: 1 h, male rats, dosed in 0.2% methocel one hour prior to intrapleural A23187, eicosanoids in pleural lavage
Experimental: Lipoxygenase Inhibition Determination in vivo
Inhibition of leukotriene biosynthesis in vivo was evaluated using the lonophore A32187-Induced Rat Plueral Inflammation Model. Pleural inflammation was induced in male rats following the method of Rao, et al (Rao, T. S., Currie, J. L., Shaffer, A. F., Isakson, P. C., (1993) Evaluation of 5-lipoxygenase Inhibitors, Zileuton, A-78773 and ICI D-2138 in an Ionophore (A-23187) Induced Pleural Inflammation Model in the Rat, Life Sciences, 53: 147 (1993)). Rats were dosed with experimental compounds in 0.2% methocel one hour prior to the intrapleural injection of the calcium ionophore, A23187. The rats where lightly anesthetized with Pentrane (Abbott Laboratories) and injected intrapleurally with 0.5 ml of 2% ethanol in injectable saline (Abbott Laboratories) containing 20 μg of A23187 (Cal BioChem-Novabiochem). Thirty minutes later the animals were euthanised and the pleural cavities lavaged with ice cold saline (Abbott Laboratories). The lavage fluid was then added to ice cold methanol (final methanol concentration 30%) to lyse cells and precipitate protein. Eicosanoids were determined by enzyme immunoassay by standard methods.

[1] = system: leukotriene biosynthesis (LTB4) in human polymorphornuclear leukocytes (PMNL); assay: calcium ionophore-induced LTB4 in human PMNL (leukotriene biosynthesis inhibition in vitro); format: cell-based; conditions: calcium ionophore 8.3 μM, 15 min preincubation, LTB4 measured
Experimental: Lipoxygenase Inhibition Determination in vitro
Inhibition of leukotriene biosynthesis was evaluated in vitro using an assay involving calcium ionophore-induced LTB4 expressed in human polymorphornuclear leukocytes (PMNL). Human PMNL isolated from heparinized (20 USP units/mL) venous blood (25 mL) obtained from healthy volunteers was layered over an equal volume of Ficoll-Hypaque Mono-Poly Resolving Medium (ICN Flow, Costa Mesa, Calif.) and centrifugated at 400 × g for 40 minutes at 20° C. The PMNL was collected, erythrocytes lysed and washed 2× and suspended at 1.0×10^7 cells/ml in Earle's balanced salt solution with 17 mM Earle's HEPES. Aliquots of the cell suspension were preincubated with test compounds dissolved in DMSO (final concentration <2%) for 15 minutes and stimulated with calcium ionophore (final concentration 8.3 μM) for 10 minutes at 37° C. Incubations were stopped with the addition of two volumes of ice-cold methanol followed by centrifuging the cell suspensions at 4° C. for 10 minutes at 450 × g. The amount of LTB4 in the methanol extract was analyzed by enzyme-linked immunoassay or by HPLC analysis.

CC(SCC(=O)O)(c1ccc(OCc2ccc3ccccc3n2)cc1)c1ccc(OCc2ccc3ccccc3n2)cc1 [Example 1, 1,1-bis(4-(2-quinolylmethoxy)phenyl)eth-1-ylthioacetic acid]
ED50 (leukotriene biosynthesis): 1.1 mg/kg | IC50 [1]: 230 nM
